Experiments:
[1] = target: T1, Aldehyde dehydrogenase, dimeric NADP-preferring (Homo sapiens, UniProt P30838); assay: (§1) Inhibition of full length recombinant human ALDH3A1 expressed in Escherichia coli BL21(DE3) assessed as reduction in dehydrogenase activity by measuring NAD(P)H level preincubated for 2 mins followed by addition of benzaldehyde as substrate in presence of NADP+ by spectrophotometric method
T1 sequence (P30838 whole entry): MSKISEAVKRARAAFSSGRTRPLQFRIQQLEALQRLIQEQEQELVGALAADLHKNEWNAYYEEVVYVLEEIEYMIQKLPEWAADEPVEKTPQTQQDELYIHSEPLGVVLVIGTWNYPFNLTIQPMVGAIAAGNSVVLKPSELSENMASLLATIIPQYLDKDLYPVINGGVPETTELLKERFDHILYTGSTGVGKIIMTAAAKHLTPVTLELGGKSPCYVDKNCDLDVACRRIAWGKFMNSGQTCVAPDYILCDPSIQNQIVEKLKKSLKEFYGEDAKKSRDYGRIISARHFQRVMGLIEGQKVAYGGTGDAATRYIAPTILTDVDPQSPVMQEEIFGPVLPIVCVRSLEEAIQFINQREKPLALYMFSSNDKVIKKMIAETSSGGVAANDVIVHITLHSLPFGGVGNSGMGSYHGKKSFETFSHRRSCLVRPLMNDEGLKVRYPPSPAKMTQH

[2] = target: T2, Aldehyde dehydrogenase 1A1 (Homo sapiens) (UniProt P00352); assay: (§2) Inhibition of full length recombinant human ALDH1A1 expressed in Escherichia coli BL21(DE3) assessed as remaining dehydrogenase activity by measuring NAD(P)H level at 10 uM preincubated for 2 mins followed by addition of propionaldehyde as substrate in presence of NAD+ by spectrophotometric method
T2 sequence (whole entry): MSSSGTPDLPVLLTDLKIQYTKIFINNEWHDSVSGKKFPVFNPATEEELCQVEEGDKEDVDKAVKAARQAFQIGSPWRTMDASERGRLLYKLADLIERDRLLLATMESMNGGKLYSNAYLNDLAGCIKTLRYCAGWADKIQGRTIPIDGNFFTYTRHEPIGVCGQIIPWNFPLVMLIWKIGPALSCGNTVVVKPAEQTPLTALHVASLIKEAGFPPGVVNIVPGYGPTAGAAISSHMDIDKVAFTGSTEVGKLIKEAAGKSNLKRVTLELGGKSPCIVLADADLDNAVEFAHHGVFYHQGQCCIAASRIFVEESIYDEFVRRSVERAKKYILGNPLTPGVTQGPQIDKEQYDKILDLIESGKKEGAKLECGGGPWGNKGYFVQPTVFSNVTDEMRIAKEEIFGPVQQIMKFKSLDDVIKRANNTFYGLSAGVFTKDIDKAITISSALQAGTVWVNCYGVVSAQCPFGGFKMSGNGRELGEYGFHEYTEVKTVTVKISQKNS

[3] = target: T3, Aldehyde dehydrogenase, mitochondrial (Homo sapiens) (UniProt P05091); assay: Inhibition of full length recombinant human ALDH2 expressed in Escherichia coli assessed as remaining dehydrogenase activity by measuring NAD(P)H level at 10 uM preincubated for 2 mins followed by addition of propionaldehyde as substrate in presence of NAD+ by spectrophotometric method
T3 sequence (whole entry): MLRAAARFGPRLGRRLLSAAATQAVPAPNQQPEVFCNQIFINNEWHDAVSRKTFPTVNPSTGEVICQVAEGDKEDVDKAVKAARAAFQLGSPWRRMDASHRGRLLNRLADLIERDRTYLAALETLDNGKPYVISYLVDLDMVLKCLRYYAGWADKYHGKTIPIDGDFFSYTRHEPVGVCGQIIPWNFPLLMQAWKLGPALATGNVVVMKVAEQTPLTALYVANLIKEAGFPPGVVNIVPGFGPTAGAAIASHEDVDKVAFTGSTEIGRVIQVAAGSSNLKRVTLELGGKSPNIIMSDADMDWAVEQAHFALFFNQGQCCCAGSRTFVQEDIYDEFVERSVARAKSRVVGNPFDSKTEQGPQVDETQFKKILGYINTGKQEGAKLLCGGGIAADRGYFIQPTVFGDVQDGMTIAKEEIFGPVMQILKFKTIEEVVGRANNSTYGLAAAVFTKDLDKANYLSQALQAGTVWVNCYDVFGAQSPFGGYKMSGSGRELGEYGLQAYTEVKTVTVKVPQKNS

[4] = target: T4, Aldehyde dehydrogenase, dimeric NADP-preferring (Homo sapiens) (UniProt P30838); assay: Inhibition of full length recombinant human ALDH3A1 expressed in Escherichia coli BL21(DE3) assessed as remaining dehydrogenase activity by measuring NAD(P)H level at 10 uM preincubated for 2 mins followed by addition of propionaldehyde as substrate in presence of NAD+ by spectrophotometric method
T4 sequence (whole entry): T1 sequence (P30838 whole entry)

[5] = Lipophilicity, log P of the compound; assay type: physicochemical; details: octanol/water
[6] = target: T5, Aldehyde dehydrogenase X, mitochondrial (Homo sapiens, UniProt P30837)
T5 sequence (P30837 whole entry): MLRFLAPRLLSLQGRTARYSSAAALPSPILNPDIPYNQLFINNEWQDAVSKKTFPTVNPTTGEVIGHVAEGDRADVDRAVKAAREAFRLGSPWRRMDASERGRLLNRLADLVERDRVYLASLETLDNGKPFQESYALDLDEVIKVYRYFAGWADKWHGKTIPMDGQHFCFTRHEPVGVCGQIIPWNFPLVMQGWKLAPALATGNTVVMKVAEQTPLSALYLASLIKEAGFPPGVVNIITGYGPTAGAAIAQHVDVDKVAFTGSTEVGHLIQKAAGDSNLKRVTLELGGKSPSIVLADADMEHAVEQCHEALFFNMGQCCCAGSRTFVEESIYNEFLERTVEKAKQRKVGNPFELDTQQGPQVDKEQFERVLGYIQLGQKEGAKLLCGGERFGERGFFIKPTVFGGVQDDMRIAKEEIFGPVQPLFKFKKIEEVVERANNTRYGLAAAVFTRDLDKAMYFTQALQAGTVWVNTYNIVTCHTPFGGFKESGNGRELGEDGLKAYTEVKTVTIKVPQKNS
Description: (§3) Inhibition of full length recombinant human ALDH1B1 expressed in Escherichia coli TunerDE3 assessed as reduction in dehydrogenase activity by measuring NAD(P)H level preincubated for 2 mins followed by addition of propionaldehyde as substrate in presence of NAD+ by spectrophotometric method

[7] = target: T6, Aldehyde dehydrogenase 1A1 (Homo sapiens, UniProt P00352)
T6 sequence (P00352 whole entry): T2 sequence (whole entry)
Description: (§4) Inhibition of full length recombinant human ALDH1A1 expressed in Escherichia coli BL21(DE3) assessed as reduction in dehydrogenase activity by measuring NAD(P)H level preincubated for 2 mins followed by addition of propionaldehyde as substrate in presence of NAD+ by spectrophotometric method

Retinal dehydrogenase 2 = target: T7, Retinal dehydrogenase 2 (Homo sapiens, UniProt O94788)
T7 sequence (O94788 whole entry): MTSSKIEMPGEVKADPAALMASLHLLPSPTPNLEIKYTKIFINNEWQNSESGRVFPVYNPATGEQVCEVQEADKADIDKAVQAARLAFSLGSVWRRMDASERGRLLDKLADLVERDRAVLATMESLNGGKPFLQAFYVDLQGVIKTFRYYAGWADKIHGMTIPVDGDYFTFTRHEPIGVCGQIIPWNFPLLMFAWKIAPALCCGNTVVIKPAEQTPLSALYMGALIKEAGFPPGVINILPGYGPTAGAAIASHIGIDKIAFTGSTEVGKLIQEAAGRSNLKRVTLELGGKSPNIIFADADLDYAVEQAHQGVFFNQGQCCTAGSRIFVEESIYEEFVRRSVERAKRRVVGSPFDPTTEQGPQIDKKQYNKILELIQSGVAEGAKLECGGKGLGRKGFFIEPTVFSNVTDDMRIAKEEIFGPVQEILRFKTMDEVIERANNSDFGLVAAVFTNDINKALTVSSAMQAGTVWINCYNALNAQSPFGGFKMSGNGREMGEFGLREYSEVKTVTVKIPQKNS
Description: Inhibition of full length recombinant human ALDH1A2 expressed in Escherichia coli BL21(DE3) assessed as reduction in dehydrogenase activity by measuring NAD(P)H level preincubated for 2 mins followed by addition of propionaldehyde as substrate in presence of NAD+ by spectrophotometric method

[8] = target: T8, Retinaldehyde dehydrogenase 3 (Homo sapiens, UniProt P47895)
T8 sequence (P47895 whole entry): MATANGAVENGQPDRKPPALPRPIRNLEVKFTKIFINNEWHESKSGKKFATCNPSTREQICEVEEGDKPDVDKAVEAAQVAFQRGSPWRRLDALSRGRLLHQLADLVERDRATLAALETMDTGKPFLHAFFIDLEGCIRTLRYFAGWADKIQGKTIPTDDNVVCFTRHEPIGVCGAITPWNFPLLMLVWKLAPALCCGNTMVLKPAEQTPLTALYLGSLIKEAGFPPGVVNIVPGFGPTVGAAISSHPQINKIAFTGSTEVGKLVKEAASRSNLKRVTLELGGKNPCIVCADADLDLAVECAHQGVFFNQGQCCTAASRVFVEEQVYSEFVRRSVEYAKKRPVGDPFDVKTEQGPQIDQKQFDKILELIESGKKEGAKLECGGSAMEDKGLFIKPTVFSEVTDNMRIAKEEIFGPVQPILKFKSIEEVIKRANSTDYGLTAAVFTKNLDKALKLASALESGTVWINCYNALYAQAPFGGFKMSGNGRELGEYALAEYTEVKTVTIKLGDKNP
Description: (§5) Inhibition of full length recombinant human ALDH1A3 expressed in Escherichia coli BL21(DE3) assessed as reduction in dehydrogenase activity by measuring NAD(P)H level preincubated for 2 mins followed by addition of propionaldehyde as substrate in presence of NAD+ by spectrophotometric method

[9] = target: T9, Aldehyde dehydrogenase, mitochondrial (Homo sapiens, UniProt P05091)
T9 sequence (P05091 whole entry): T3 sequence (whole entry)
Description: (§6) Inhibition of full length recombinant human ALDH2 expressed in Escherichia coli assessed as reduction in dehydrogenase activity by measuring NAD(P)H level preincubated for 2 mins followed by addition of propionaldehyde as substrate in presence of NAD+ by spectrophotometric method

[10] = target: T10, Cytosolic 10-formyltetrahydrofolate dehydrogenase (Rattus norvegicus, UniProt P28037); assay: Inhibition of rat ALDH1L1 assessed as reduction in dehydrogenase activity by measuring NAD(P)H level preincubated for 2 mins followed by addition of propionaldehyde as substrate in presence of NAD+ by spectrophotometric method
T10 sequence (P28037 whole entry): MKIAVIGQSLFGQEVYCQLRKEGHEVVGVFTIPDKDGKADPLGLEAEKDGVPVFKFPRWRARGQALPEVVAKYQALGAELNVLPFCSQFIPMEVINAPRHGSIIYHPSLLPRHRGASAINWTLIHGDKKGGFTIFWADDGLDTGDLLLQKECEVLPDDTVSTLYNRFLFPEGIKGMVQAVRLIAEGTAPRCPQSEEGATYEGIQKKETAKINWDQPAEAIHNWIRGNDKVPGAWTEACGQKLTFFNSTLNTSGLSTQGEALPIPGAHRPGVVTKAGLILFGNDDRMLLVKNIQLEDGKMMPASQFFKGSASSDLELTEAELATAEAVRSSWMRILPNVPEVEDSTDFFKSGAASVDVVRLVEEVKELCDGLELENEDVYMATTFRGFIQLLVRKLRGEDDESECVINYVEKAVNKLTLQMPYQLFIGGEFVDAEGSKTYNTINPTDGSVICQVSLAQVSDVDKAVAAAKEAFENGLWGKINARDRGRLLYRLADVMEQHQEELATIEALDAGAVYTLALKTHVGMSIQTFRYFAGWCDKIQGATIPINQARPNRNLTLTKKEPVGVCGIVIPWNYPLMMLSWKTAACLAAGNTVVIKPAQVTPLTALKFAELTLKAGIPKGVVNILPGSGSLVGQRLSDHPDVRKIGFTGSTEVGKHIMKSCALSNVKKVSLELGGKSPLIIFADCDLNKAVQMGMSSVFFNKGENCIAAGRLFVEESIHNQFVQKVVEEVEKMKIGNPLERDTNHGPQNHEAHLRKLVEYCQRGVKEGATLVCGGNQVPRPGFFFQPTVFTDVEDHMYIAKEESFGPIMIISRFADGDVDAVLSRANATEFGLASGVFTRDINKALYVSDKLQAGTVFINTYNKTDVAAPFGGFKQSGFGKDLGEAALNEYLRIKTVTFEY

[11] = target: T4, Aldehyde dehydrogenase, dimeric NADP-preferring (Homo sapiens); assay: as §1, with “method relative to control” for “method”
[12] = target: T9, Aldehyde dehydrogenase, mitochondrial; remark: listed apart in the source
Description: as §6

[13] = target: T6, Aldehyde dehydrogenase 1A1; remark: listed apart in the source
Description: as §4

[14] = target: T6, Aldehyde dehydrogenase 1A1; remark: listed apart in the source
Description: Non-competitive inhibition of full length recombinant human ALDH1A1 expressed in Escherichia coli BL21(DE3) assessed as reduction in dehydrogenase activity by measuring NAD(P)H level using varying levels propionaldehyde in presence of NAD+ by Lineweaver-Burk plot analysis

[15] = target: T6, Aldehyde dehydrogenase 1A1; remark: listed apart in the source
[16] = target: T5, Aldehyde dehydrogenase X, mitochondrial; remark: listed apart in the source
Description: as §3

[17] = target: T8, Retinaldehyde dehydrogenase 3; remark: listed apart in the source
Description: as §5

[18] = target: T9, Aldehyde dehydrogenase, mitochondrial; assay: Mixed-type non-competitive inhibition of full length recombinant human ALDH2 expressed in Escherichia coli assessed as reduction in dehydrogenase activity using propionaldehyde as substrate in presence of varying levels NAD+ by Lineweaver-Burk plot analysis
[19] = target: T2, Aldehyde dehydrogenase 1A1 (Homo sapiens); assay: as §2, with “reduction in” for “remaining”, “level” for “level at 10 uM”, “method relative to control” for “method”

SMILES	IC50 [1]	Activity [2]	Activity [3]	Activity [4]	logP [5]	IC50 [6]	IC50 [7]	IC50 (Retinal dehydrogenase 2)	IC50 [8]	IC50 [9]	IC50 [12]	Ki [14]	IC50 [17]	also measured
Cc1c(Cc2ccccc2)c(=O)oc2cc(OS(C)(=O)=O)ccc12	Not Active	24.6%	99.7%	86.9%	3.44	13 µM	2.8 µM	11 µM	10 µM	Not Active	–	–	–	–
O=c1c(-c2ccc(O)cc2)coc2cc(O[C@@H]3O[C@H](CO)[C@@H](O)[C@H](O)[C@H]3O)ccc12 [DAIDZIN]	Not Active	–	–	–	–	5.1 µM	> 200 µM	4.5 µM	> 200 µM	–	–	–	–	IC50 [10]: Not Active
Cc1cc(=O)oc2cc3c(cc12)CCC(=O)O3	–	65.2%	25.5%	53.6%	2.11	–	–	–	–	–	0.47 µM	–	–	IC50 ([1]; read-out: IC50): 5.4 µM; Imax [11]: 50 to 60%; IC50 [13]: Not Active
CCN(CC)c1ccc2c(C)cc(=O)oc2c1	Not Active	14.3%	71.7%	109%	3.63	–	0.76 µM	> 10 µM	–	Not Active	–	1.2 µM	Not Active	Ki [15]: 0.87 µM; IC50 [16]: Not Active
Cc1cc(=O)oc2cc(OCC#N)ccc12	–	35.7%	41.3%	20.4%	1.22	–	–	–	–	–	–	6.9 µM	–	Ki [18]: 5.6 µM
Cc1oc2cc3oc(=O)c4c(c3cc2c1C)CCCC4	Not Active	56.3%	16.3%	94.1%	4.27	0.095 µM	0.13 µM	0.065 µM	–	–	0.067 µM	–	Not Active	Imax [19]: 50 to 60%

Source: ChEMBL document CHEMBL4007427, “Inhibition of the Aldehyde Dehydrogenase 1/2 Family by Psoralen and Coumarin Derivatives” (J Med Chem, 2017)
